# Results from patent US20230264009A1, “DISINFECTING CAP KIT FOR LUER ACCESS DEVICES” (SterileCare Inc., priority 2022, published 2023).
# Counter-ions that a name gives are not always drawn.
# Assays:
# MRSA ON184 biofilm = experiment: FBEC index, checkerboard dilution on biofilms; assay type: cell-based, Staphylococcus aureus; conditions: tetrasodium EDTA + ethanol
# Description: (§3) In step (4), microtiter plates are incubated at 37° C. for 24 h. then (6), after incubation, the bacterial and fungal cells were dislodged from the pegs into the recovery medium described above.
# (§4) Three 10-µL aliquots, for a total of 30 µL from each well of recovery medium, were spotted on MH agar plates and incubated for 24 h at 37° C. […] The FBEC determination is a modification of the FICI.
# [1] = test system: 48-h-old biofilms of bacterial and fungal strains; experiment: MBEC Assay, 24 h exposure (summary); assay type: cell-based; conditions: following 24 h of treatment
# Description: A biofilm cultivation cell composition was provided. This fifth composition was created using an MBEC Assay® biofilm inoculator, consisting of a polystyrene lid with 96 downward-protruding pegs and a corresponding base used to grow biofilms. A standardized inoculum was diluted in an appropriate biofilm growth medium to achieve a viable cell count of 1.5 × 10^6 CFU/mL of bacterial cells or […] CFU/mL of fungal cells. Then, 150 µL of this inoculum was transferred into each appropriate well, and the peg lids were inserted into the microtiter plates. The plates were sealed with Parafilm and were incubated at optimum temperature for 48 h with slight rocking for bacteria and shaking at 200 rpm for fungal strains. After incubation, the peg lid was removed from the base and rinsed twice with sterile phosphate-buffered saline (PBS) for 2 min to remove loosely attached non-sessile cells. Before the antimicrobial challenge, the pegs in column 1 (n = 8) were considered the biofilm growth control; these pegs were removed from the lids, placed into 200 µL of recovery medium, and analyzed for starting biofilm cell numbers as described below. […] After the antimicrobial challenge, the pegs were rinsed twice with sterile PBS for 2 min and placed into a new 96-well plate containing 200 µL of recovery medium. The recovery plates were sealed with Parafilm, and biofilm cells were dislodged from the pegs by sonication for 30 min with a Branson 3510 bath sonicator. The biofilm cells in the recovery medium were serially diluted, and a drop dilution assay was performed to enumerate the viable cells. MBEC values were determined as the minimum concentration of antimicrobials that yielded a viable cell count at or lower than the 125 CFU/mL detection limit.
# Proteus mirabilis ON153 [2] = experiment: Checkerboard titration, FMCI; assay type: cell-based; conditions: P. mirabilis ON153
# Description: (§1) An assay was made using a minimum inhibitory concentration (MIC) and minimum bactericidal concentration (MBC) and minimum fungicidal concentration (MFC) determination. The MIC was determined by the micro broth dilution method in 96-well plates. Serial two-fold dilutions of tetrasodium EDTA (from 2% to 0.015%), ethanol (from 50% to 0.1%) and chlorhexidine HCl (from 100 µg/mL to 0.025 µg/mL) were prepared in MH broth with a final volume of 90 µL per well. A 10 µL containing 1 × 10^5 bacterial cells or 2 × 10^3 fungal cells were added to each well. The inoculated plates were covered with a lid, sealed with Parafilm, and incubated for 24 h at 37° C. with slight rocking on a tilting platform shaker. After incubation, the optical density at 600 nm (OD 600 ) of the cultures in each well was measured using an xMark™ Microplate Absorbance Spectrophotometer (Bio-Rad). […] MBCs and MFCs were determined by transferring 100 µL from each well with no apparent growth onto appropriate agar plates, followed by incubation for 24 h at 37° C.
# (§2) A fourth composition and solution included tetrasodium EDTA with ethanol or chlorhexidine HCl. This fourth composition and solution were created using checkerboard titration methods using micro broth dilution in 96-well microtiter plates. The concentrations of antimicrobials used were based on previously determined MIC values. Briefly, 200 µL of two-fold dilutions of tetrasodium EDTA and ethanol or chlorhexidine HCl were prepared in MH or MH II broth with standardized cell suspension. […] Microtiter plates were incubated at 37° C. for 24 h, and the results were analyzed. Each test was performed in duplicate and included a growth control without adding any antimicrobials.
# Serratia marcescens SK2 [3] = experiment: Checkerboard titration, FMCI; assay type: cell-based; conditions: S. marcescens SK2
# Description: as §1, §2
# [4] = test system: Staphylococcus aureus ON89; experiment: Checkerboard titration, FMCI; assay type: cell-based; conditions: S. aureus ON89
# Description: as §1, §2
# [5] = test system: Staphylococcus epidermidis ON170; experiment: Checkerboard titration, FMCI; assay type: cell-based; conditions: S. epidermidis ON170
# Description: as §1, §2
# Candida albicans SK4b [6] = experiment: Checkerboard titration, FMCI; assay type: cell-based; conditions: C. albicans SK4b
# Description: as §1, §2
# [7] = test system: Stenotrophomonas maltophilia ON17; experiment: Checkerboard titration, FMCI; assay type: cell-based; conditions: S. maltophilia ON17
# Description: as §1, §2
# [8] = test system: Candida albicans SK4b biofilm; experiment: FBEC index, checkerboard dilution on biofilms; assay type: cell-based; conditions: tetrasodium EDTA + ethanol; C. albicans SK4b biofilm
# Description: as §3, §4
# [9] = test system: 48-h old biofilms of test organisms; experiment: Rapid biofilm eradication, 2 h exposure; assay type: cell-based; conditions: alone at the MBEC
# Description: Determining rapid biofilm eradication by tetrasodium EDTA, ethanol, and chlorhexidine HCl alone and in combination was performed. After biofilm formation, control pegs (n = 6) were removed and analyzed to determine the starting biofilm cell numbers via the drop dilution method. The 48-h old biofilms on the pegs were exposed to different concentrations of test antimicrobials, dissolved in an appropriate growth medium, for two h to evaluate their efficacy alone and in combination. Antimicrobial solutions tested against each organism included each agent alone at the MBEC, double combinations at the FBEC, and triple combinations ranging from 5 to 20% ethanol, 2.5-5 µg/mL chlorhexidine HCl and 1- 3% tetrasodium EDTA. Following treatment, pegs were washed twice with sterile PBS, and the biofilm cells were dislodged into recovery medium and enumerated as described above.
# The method for rapid biofilm eradication ability of test antimicrobials alone and in combination against 48-h-old biofilms within two h exposure time included (1) choosing different concentrations of test antimicrobials to assess their potency in eradicating preformed biofilms of study organisms within two h. Then (2) the quantitative recovery from biofilms following exposure to the antimicrobial solutions for bacterial strains (FIGS. 6A-6C) and fungal strains (FIG. 7) was evaluated.
# C. albicans ON47 [10] = experiment: Checkerboard titration, FICI; assay type: cell-based, Candida albicans
# Description: as §2
# S. epidermidis SK9 [11] = experiment: Checkerboard titration, FICI; assay type: cell-based, Staphylococcus epidermidis
# Description: as §2
# C. albicans ON47 biofilm = experiment: FBEC index, checkerboard dilution on biofilms; assay type: cell-based, Candida albicans; conditions: tetrasodium EDTA + ethanol
# Description: as §3, §4
# MRSA ON184 [12] = experiment: Checkerboard titration, FMCI; assay type: cell-based, Staphylococcus aureus
# Description: as §1, §2
# Proteus mirabilis ON153 [13] = experiment: Checkerboard titration, FICI; assay type: cell-based; conditions: P. mirabilis ON153
# Description: as §2
# [14] = test system: Staphylococcus aureus ON89; experiment: Checkerboard titration, FICI; assay type: cell-based; conditions: S. aureus ON89
# Description: as §2
# [15] = test system: Staphylococcus epidermidis ON170; experiment: Checkerboard titration, FICI; assay type: cell-based; conditions: S. epidermidis ON170
# Description: as §2
# Candida albicans SK4b [16] = experiment: Checkerboard titration, FICI; assay type: cell-based; conditions: C. albicans SK4b
# Description: as §2
# [17] = test system: Stenotrophomonas maltophilia ON17; experiment: Checkerboard titration, FICI; assay type: cell-based; conditions: S. maltophilia ON17
# Description: as §2
# [18] = test system: Escherichia coli SK2 biofilm; experiment: FBEC index, checkerboard dilution on biofilms; assay type: cell-based; conditions: tetrasodium EDTA + ethanol; E. coli SK2 biofilm
# Description: as §3, §4
# [19] = test system: Staphylococcus epidermidis SK9 biofilm; experiment: FBEC index, checkerboard dilution on biofilms; assay type: cell-based; conditions: tetrasodium EDTA + ethanol; S. epidermidis SK9 biofilm
# Description: as §3, §4
# [20] = test system: Staphylococcus aureus ON89 biofilm; experiment: FBEC index, checkerboard dilution on biofilms; assay type: cell-based; conditions: tetrasodium EDTA + ethanol; S. aureus ON89 biofilm
# Description: as §3, §4
# S. epidermidis SK9 [21] = experiment: Checkerboard titration, FMCI; assay type: cell-based, Staphylococcus epidermidis
# Description: as §1, §2
# C. albicans ON47 [22] = experiment: Checkerboard titration, FMCI; assay type: cell-based, Candida albicans
# Description: as §1, §2
# MRSA ON184 [23] = experiment: Checkerboard titration, FICI; assay type: cell-based, Staphylococcus aureus
# Description: as §2
# [24] = test system: Pseudomonas aeruginosa SK1; experiment: Checkerboard titration, FMCI; assay type: cell-based; conditions: tetrasodium EDTA + chlorhexidine HCl; P. aeruginosa SK1
# Description: as §1, §2
# Escherichia coli ON29 [25] = experiment: Checkerboard titration, FMCI; assay type: cell-based; conditions: tetrasodium EDTA + chlorhexidine HCl; E. coli ON29
# Description: as §1, §2
# Serratia marcescens SK2 [26] = experiment: Checkerboard titration, FICI; assay type: cell-based; conditions: tetrasodium EDTA + chlorhexidine HCl; S. marcescens SK2
# Description: as §2
# [27] = test system: Pseudomonas aeruginosa SK1; experiment: Checkerboard titration, FICI; assay type: cell-based; conditions: tetrasodium EDTA + chlorhexidine HCl; P. aeruginosa SK1
# Description: as §2
# Escherichia coli ON29 [28] = experiment: Checkerboard titration, FICI; assay type: cell-based; conditions: tetrasodium EDTA + chlorhexidine HCl; E. coli ON29
# Description: as §2
# E. coli SK2 [29] = experiment: Checkerboard titration, FMCI; assay type: cell-based, Escherichia coli; conditions: tetrasodium EDTA + chlorhexidine HCl
# Description: as §1, §2
# E. coli SK2 [30] = experiment: Checkerboard titration, FICI; assay type: cell-based, Escherichia coli; conditions: tetrasodium EDTA + chlorhexidine HCl
# Description: as §2
# [31] = tetrasodium EDTA + chlorhexidine HCl
smiles,measurement,setting,value
"CCO [Ethanol, ethanol]",FBEC (concentration in combination),MRSA ON184 biofilm,1.6 % w/v
same,Concentration alone able to eradicate all established biofilms,[1],5%
same,Concentration in combination giving FMCI,Proteus mirabilis ON153 [2]; tetrasodium EDTA + ethanol,6.25 % w/v
same,Concentration in combination giving FMCI,Serratia marcescens SK2 [3]; tetrasodium EDTA + ethanol,6.25 % w/v
same,Concentration in combination giving FMCI,[4]; tetrasodium EDTA + ethanol,3.125 % w/v
same,Concentration in combination giving FMCI,[5]; tetrasodium EDTA + ethanol,1.6 % w/v
same,Concentration in combination giving FMCI,Candida albicans SK4b [6]; tetrasodium EDTA + ethanol,3.125 % w/v
same,Concentration in combination giving FMCI,[7]; tetrasodium EDTA + ethanol,1.6 % w/v
same,FBEC (concentration in combination),[8],1.6 % w/v
same,Eradication of preformed biofilms,[9],failed to eradicate
same,Concentration in combination giving FICI,C. albicans ON47 [10]; tetrasodium EDTA + ethanol,0.4 % w/v
same,Concentration in combination giving FICI,S. epidermidis SK9 [11]; tetrasodium EDTA + ethanol,0.4 % w/v
same,FBEC (concentration in combination),C. albicans ON47 biofilm,1.6 % w/v
same,Concentration in combination giving FMCI,MRSA ON184 [12]; tetrasodium EDTA + ethanol,3.125 % w/v
same,Concentration in combination giving FICI,Proteus mirabilis ON153 [13]; tetrasodium EDTA + ethanol,1.6 % w/v
same,Concentration in combination giving FICI,[14]; tetrasodium EDTA + ethanol,0.4 % w/v
same,Concentration in combination giving FICI,[15]; tetrasodium EDTA + ethanol,0.4 % w/v
same,Concentration in combination giving FICI,Candida albicans SK4b [16]; tetrasodium EDTA + ethanol,1.6 % w/v
same,Concentration in combination giving FICI,[17]; tetrasodium EDTA + ethanol,0.4 % w/v
same,FBEC (concentration in combination),[18],1.6 % w/v
same,FBEC (concentration in combination),[19],1.6 % w/v
same,FBEC (concentration in combination),[20],0.8 % w/v
same,Concentration in combination giving FMCI,S. epidermidis SK9 [21]; tetrasodium EDTA + ethanol,3.125 % w/v
same,Concentration in combination giving FMCI,C. albicans ON47 [22]; tetrasodium EDTA + ethanol,3.125 % w/v
same,Concentration in combination giving FICI,MRSA ON184 [23]; tetrasodium EDTA + ethanol,0.4 % w/v
"[H]/N=C(\N/C(=N/[H])NCCCCCCNC(=N)NC(=N)Nc1ccc(Cl)cc1)Nc1ccc(Cl)cc1 [Chlorhexidine HCl, chlorhexidine HCl]",Concentration alone able to eradicate all established biofilms,[1],100 µg/mL
same,Concentration in combination giving FMCI,Proteus mirabilis ON153 [2]; [31],1.6 µg/mL
same,Concentration in combination giving FMCI,Serratia marcescens SK2 [3]; [31],1.6 µg/mL
same,Concentration in combination giving FMCI,[4]; [31],0.2 µg/mL
same,Concentration in combination giving FMCI,[24],1.6 µg/mL
same,Concentration in combination giving FMCI,[5]; [31],0.4 µg/mL
same,Concentration in combination giving FMCI,Candida albicans SK4b [6]; [31],0.8 µg/mL
same,Concentration in combination giving FMCI,Escherichia coli ON29 [25],0.2 µg/mL
same,Concentration in combination giving FMCI,[7]; [31],0.4 µg/mL
same,Eradication of preformed biofilms,[9],failed to eradicate
same,Concentration in combination giving FICI,C. albicans ON47 [10]; [31],0.8 µg/mL
same,Concentration in combination giving FICI,S. epidermidis SK9 [11]; [31],0.025 µg/mL
same,Concentration in combination giving FMCI,MRSA ON184 [12]; [31],0.4 µg/mL
same,Concentration in combination giving FICI,Proteus mirabilis ON153 [13]; [31],0.8 µg/mL
same,Concentration in combination giving FICI,Serratia marcescens SK2 [26],1.5 µg/mL
same,Concentration in combination giving FICI,[14]; [31],0.1 µg/mL
same,Concentration in combination giving FICI,[27],0.8 µg/mL
same,Concentration in combination giving FICI,[15]; [31],0.05 µg/mL
same,Concentration in combination giving FICI,Candida albicans SK4b [16]; [31],0.8 µg/mL
same,Concentration in combination giving FICI,Escherichia coli ON29 [28],0.2 µg/mL
same,Concentration in combination giving FICI,[17]; [31],0.2 µg/mL
same,Concentration in combination giving FMCI,E. coli SK2 [29],0.2 µg/mL
same,Concentration in combination giving FICI,E. coli SK2 [30],0.1 µg/mL
same,Concentration in combination giving FMCI,S. epidermidis SK9 [21]; [31],0.4 µg/mL
same,Concentration in combination giving FMCI,C. albicans ON47 [22]; [31],1.6 µg/mL
same,Concentration in combination giving FICI,MRSA ON184 [23]; [31],0.2 µg/mL
